Test results reported in US7960377B2 (priority 2008, dated 2011).

How the values were obtained:
[1] = target: T1, rat CB2 receptor (Rattus norvegicus, UniProt Q9QZN9); assay: cell-based; type: cell-based
T1 sequence (Q9QZN9 1-360): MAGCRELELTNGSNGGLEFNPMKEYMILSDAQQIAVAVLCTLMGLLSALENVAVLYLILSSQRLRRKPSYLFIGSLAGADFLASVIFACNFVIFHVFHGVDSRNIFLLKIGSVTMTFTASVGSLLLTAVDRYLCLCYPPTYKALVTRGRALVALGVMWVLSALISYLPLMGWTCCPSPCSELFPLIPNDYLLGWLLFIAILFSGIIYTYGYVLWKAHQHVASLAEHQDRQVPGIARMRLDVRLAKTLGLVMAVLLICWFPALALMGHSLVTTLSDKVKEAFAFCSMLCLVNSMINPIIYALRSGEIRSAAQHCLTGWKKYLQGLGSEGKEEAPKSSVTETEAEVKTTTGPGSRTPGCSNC

[2] = target: human CB1 receptor (Homo sapiens, UniProt P21554); assay: cell-based
Chain of human CB1 receptor (P21554 whole entry): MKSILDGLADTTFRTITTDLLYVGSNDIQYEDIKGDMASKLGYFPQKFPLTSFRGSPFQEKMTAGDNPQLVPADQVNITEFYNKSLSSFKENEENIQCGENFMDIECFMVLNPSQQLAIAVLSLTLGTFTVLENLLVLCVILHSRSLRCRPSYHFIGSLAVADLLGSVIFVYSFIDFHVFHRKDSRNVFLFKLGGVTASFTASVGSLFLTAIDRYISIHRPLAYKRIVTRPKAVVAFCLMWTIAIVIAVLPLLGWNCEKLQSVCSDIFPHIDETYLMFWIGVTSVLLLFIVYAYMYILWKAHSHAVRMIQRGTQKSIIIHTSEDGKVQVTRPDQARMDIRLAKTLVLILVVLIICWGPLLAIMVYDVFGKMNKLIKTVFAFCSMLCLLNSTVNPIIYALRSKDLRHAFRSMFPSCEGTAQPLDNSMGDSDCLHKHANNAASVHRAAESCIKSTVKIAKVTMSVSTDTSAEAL

SMILES	EC50 [1] [nM]	EC50 [2] [nM]	inverse agonist mark, rat CB2 receptor ([1]; asterisk at the compound number)
COCC1CCCCN1C(=O)c1cnc2c(c1)N(S(=O)(=O)c1ccc(C(F)(F)F)cc1)CCO2 (racemic) [Example 74, +/− (2-(methoxymethyl)-piperidin-1-yl)(1-(4-(trifluoromethyl)phenylsulf-onyl)-2,3-dihydro-1H-pyrido[2,3-b][1,4]oxazin-7-yl)methanone]	≤ 30	> 30000	–
COCCCNC(=O)c1cnc2c(c1)N(S(=O)(=O)c1ccc(F)cc1)CCO2 [Example 12]	≤ 30	> 30000	–
CC(C)(C)NC(=O)c1cnc2c(c1)N(S(=O)(=O)c1cccc(F)c1)CCO2 [Example 20, N-tert-butyl-1-(3-fluorophenylsulfonyl)-2,3-dihydro-1H-pyrido[2,3-b][1,4]oxazine-7-carboxamide]	≤ 30	> 30000	–
O=C(NC1CCCC1)c1cnc2c(c1)N(S(=O)(=O)c1cccc(F)c1)CCO2 [Example 21, N-cyclopentyl-1-(3-fluorophenylsulfonyl)-2,3-dihydro-1H-pyrido[2,3-b][1,4]oxazine-7-carboxamide]	≤ 30	> 30000	–
C[C@H]1CCCCN1C(=O)c1cnc2c(c1)N(S(=O)(=O)c1ccc(C(F)(F)F)cc1)CCO2 [Example 69, (S)-(2-methylpiperidin-1-yl)(1-(4-(trifluoromethyl)-phenylsulfonyl)-2,3-dihydro-1H-pyrido[2,3-b][1,4]oxazin-7-yl)-methanone]	≤ 30	–	–
CC(C)(CO)NC(=O)c1cnc2c(c1)N(S(=O)(=O)c1ccc(F)cc1F)CCO2 [Example 102, 1-(2,4-difluorophenylsulfonyl)-N-(1-hydroxy-2-methylpropan-2-yl)-2,3-dihydro-1H-pyrido[2,3-b][1,4]oxazine-7-carboxamide]	≤ 30	–	–
CC(C)(O)CNC(=O)c1cnc2c(c1)N(S(=O)(=O)c1ccc(F)c(F)c1)CCO2 [Example 109, 1-(3,4-difluorophenylsulfonyl)-N-(2-hydroxy-2-methylpropyl)-2,3-dihydro-1H-pyrido[2,3-b][1,4]oxazine-7-carboxamide]	≤ 30	–	–
O=C(N[C@H]1CCC[C@@H]1O)c1cnc2c(c1)N(S(=O)(=O)c1ccc(Cl)cc1F)CCO2 [Example 111, 1-(4-chloro-2-fluorophenylsulfonyl)-N-((1S,2S)-2-hydroxycyclopentyl)-2,3-dihydro-1H-pyrido[2,3-b][1,4]oxazine-7-carboxamide]	≤ 30	–	–
CC(C)(CN1CCOCC1)NC(=O)c1cnc2c(c1)N(S(=O)(=O)c1ccc(Cl)c(Cl)c1)CCO2 [Example 112, 1-(3,4-dichlorophenylsulfonyl)-N-(2-methyl-1-morpholinopropan-2-yl)-2,3-dihydro-1H-pyrido[2,3-b][1,4]oxazine-7-carboxamide]	≤ 30	–	–
CN(CC(C)(C)CO)C(=O)c1cnc2c(c1)N(S(=O)(=O)c1ccc(Cl)c(Cl)c1)CCO2 [Example 121, 1-(3,4-dichlorophenylsulfonyl)-N-(3-hydroxy-2,2-dimethylpropyl)-N-methyl-2,3-dihydro-1H-pyrido[2,3-b][1,4]oxazine-7-carboxamide]	≤ 30	–	–
CC1(C)COCN1C(=O)c1cnc2c(c1)N(S(=O)(=O)c1ccc(Cl)c(Cl)c1)CCO2 [Example 124, (1-(3,4-dichlorophenyl-sulfonyl)-2,3-dihydro-1H-pyrido[2,3-b][1,4]oxazin-7-yl)(4,4-dimethyl-oxazolidin-3-yl)methanone]	≤ 30	–	–
CC(C)(CO)CNC(=O)c1cnc2c(c1)N(S(=O)(=O)c1ccc(Cl)c(Cl)c1)CCO2 [Example 131, 1-(3,4-dichlorophenyl-sulfonyl)-N-(3-hydroxy-2,2-dimethylpropyl)-2,3-dihydro-1H-pyrido[2,3-b][1,4]oxazine-7-carboxamide]	≤ 30	–	–
O=C(N[C@H]1CCC[C@H]1O)c1cnc2c(c1)N(S(=O)(=O)c1ccc(Cl)c(Cl)c1)CCO2 [Example 132, 1-(3,4-dichlorophenyl-sulfonyl)-N-((1S,2R)-2-hydroxycyclopentyl)-2,3-dihydro-1H-pyrido[2,3-b][1,4]oxazine-7-carboxamide]	≤ 30	–	–
COC(=O)C(C)(C)NC(=O)c1cnc2c(c1)N(S(=O)(=O)c1ccc(Cl)c(Cl)c1)CCO2 [Example 136, methyl 2-(1-(3,4-dichlorophenylsulfonyl)-2,3-dihydro-1H-pyrido[2,3-b][1,4]oxazine-7-carboxamido)-2-methylpropanoate]	≤ 30	–	–
CCC(C)(C)NC(=O)c1cnc2c(c1)N(S(=O)(=O)N1CCOCC1)CCO2 [Example 142, 1-(morpholinosulfonyl)-N-tert-pentyl-2,3-dihydro-1H-pyrido[2,3-b][1,4]oxazine-7-carboxamide]	≤ 30	–	–
CC(C)(C)NC(=O)c1cnc2c(c1)N(S(=O)(=O)N1CCCC1)CCO2 [Example 148, N-tert-butyl-1-(pyrrolidin-1-ylsulfonyl)-2,3-dihydro-1H-pyrido[2,3-b][1,4]oxazine-7-carboxamide]	≤ 30	–	–

SMILES	EC50 [1] [nM]	EC50 [2] [nM]	inverse agonist mark, rat CB2 receptor ([1]; asterisk at the compound number)
CC(C)(CO)NC(=O)c1cnc2c(c1)N(S(=O)(=O)N1CCCC1)CCO2 [Example 149, N-(1-hydroxy-2-methylpropan-2-yl)-1-(pyrrolidin-1-ylsulfonyl)-2,3-dihydro-1H-pyrido[2,3-b][1,4]oxazine-7-carboxamide]	≤ 30	–	–
CC(C)(C)NC(=O)c1cnc2c(c1)N(S(=O)(=O)N1CCC(C(F)(F)F)CC1)CCO2 [Example 150, N-tert-butyl-1-(4-(trifluoromethyl)piperidin-1-ylsulfonyl)-2,3-dihydro-1H-pyrido[2,3-b][1,4]oxazine-7-carboxamide]	≤ 30	–	–
CC(C)(CO)NC(=O)c1cnc2c(c1)N(S(=O)(=O)N1CCC(C(F)(F)F)CC1)CCO2 [Example 152, N-(1-hydroxy-2-methylpropan-2-yl)-1-(4-(trifluoromethyl)piperidin-1-ylsulfonyl)-2,3-dihydro-1H-pyrido[2,3-b][1,4]oxazine-7-carboxamide]	≤ 30	–	–
CC(C)(CO)CNC(=O)c1cnc2c(c1)N(S(=O)(=O)N1CCC(C(F)(F)F)CC1)CCO2 [Example 155, N-(3-hydroxy-2,2-dimethylpropyl)-1-(4-(trifluoromethyl)piperidin-1-ylsulfonyl)-2,3-dihydro-1H-pyrido[2,3-b][1,4]oxazine-7-carboxamide]	≤ 30	–	–
CC(C)(CO)NC(=O)c1cnc2c(c1)N(S(=O)(=O)N1CCC(F)(F)CC1)CCO2 [Example 157, 1-(4,4-difluoropiperidin-1-ylsulfonyl)-N-(1-hydroxy-2-methylpropan-2-yl)-2,3-dihydro-1H-pyrido[2,3-b][1,4]oxazine-7-carboxamide]	≤ 30	–	–
CC(C)(C)NC(=O)c1cnc2c(c1)N(S(=O)(=O)N1CCC(F)(F)C1)CCO2 [Example 163, N-tert-butyl-1-(3,3-difluoropyrrolidin-1-ylsulfonyl)-2,3-dihydro-1H-pyrido[2,3-b][1,4]oxazine-7-carboxamide]	≤ 30	–	–
CCC(C)(C)NC(=O)c1cnc2c(c1)N(S(=O)(=O)N1CCC(F)(F)C1)CCO2 [Example 164, 1-(3,3-difluoropyrrolidin-1-ylsulfonyl)-N-tert-pentyl-2,3-dihydro-1H-pyrido[2,3-b][1,4]oxazine-7-carboxamide]	≤ 30	–	–
CC(C)(CO)NC(=O)c1cnc2c(c1)N(S(=O)(=O)N1CCC(F)CC1)CCO2 [Example 168, 1-(4-fluoropiperidin-1-ylsulfonyl)-N-(1-hydroxy-2-methylpropan-2-yl)-2,3-dihydro-1H-pyrido[2,3-b][1,4]oxazine-7-carboxamide]	≤ 30	–	–
CC1CCN(S(=O)(=O)N2CCOc3ncc(C(=O)NCC(C)(C)CO)cc32)CC1 [Example 173, N-(3-hydroxy-2,2-dimethylpropyl)-1-(4-methylpiperidin-1-ylsulfonyl)-2,3-dihydro-1H-pyrido[2,3-b][1,4] oxazine-7-carboxamide]	≤ 30	–	–
CC(C)(C)NC(=O)c1cnc2c(c1)N(S(=O)(=O)N1Cc3ccccc3C1)CCO2 [Example 183, N-tert-butyl-1-(isoindolin-2-ylsulfonyl)-2,3-dihydro-1H-pyrido[2,3-b][1,4]oxazine-7-carboxamide]	≤ 30	–	–
COC(=O)C1(NC(=O)c2cnc3c(c2)N(S(=O)(=O)c2ccc(Cl)c(Cl)c2)CCO3)CCOCC1 [Example 205, methyl 4-(1-(3,4-dichlorophenylsulfonyl)-2,3-dihydro-1H-pyrido[2,3-b][1,4]oxazine-7-carboxamido)tetrahydro-2H-pyran-4-carboxylate]	≤ 30	–	–
CC(C)(C)NC(=O)c1noc(-c2cnc3c(c2)N(S(=O)(=O)c2ccc(F)cc2)CCO3)n1 [Example 214, N-tert-butyl-5-(1-(4-fluoro-phenylsulfonyl)-2,3-dihydro-1H-pyrido[2,3-b][1,4]oxazin-7-yl)-1,2,4-oxadiazole-3-carboxamide]	–	–	181, 188, 189, 190, 195, 200, 201, 202, 204, 211*, 214*, 220, 221,
COCCCNC(=O)c1noc(-c2cnc3c(c2)N(S(=O)(=O)c2ccc(F)cc2)CCO3)n1 [Example 216, 5-(1-(4-fluorophenylsulfonyl)-2,3-dihydro-1H-pyrido[2,3-b] [1,4]oxazin-7-yl)-N-(3-methoxypropyl)-1,2,4-oxadiazole-3-carboxamide]	≤ 30	–	–
O=S(=O)(c1ccc(F)cc1)N1CCOc2ncc(-c3nc4ncccc4o3)cc21 [Example 217]	≤ 30	–	–
O=S(=O)(c1ccc(C(F)(F)F)cc1)N1CCOc2ncc(-c3ncc(-c4ccccc4)o3)cc21 [Example 227, 7-(5-phenyloxazol-2-yl)-1-(4-(trifluoromethyl)phenyl-sulfonyl)-2,3-dihydro-1H-pyrido[2,3-b][1,4]oxazine]	≤ 30	–	–
